# Measured values as given in US20240358693A1, “METHODS OF TREATING PAIN” (Aisa Pharma, Inc., priority 2023, published 2024).
# Test system: participants with SSc-RP
# Assay: Average severity of weekly RP attacks (VAS 0-10 cm scale)
# Assay type: in vivo, human
# Excerpt: The absolute change in average severity of weekly RP attacks (VAS 0-10 cm scale) from baseline to the end of each Dosing Period was and will be a secondary outcome variable. The sponsor-developed participant-informed diary will be used to record data. Average severity of weekly RP attacks is defined as the total severity scores of RP attacks divided by total number of RP attacks within the last 7 days of each dosing period. Total severity scores of RP attacks during the last 7 days of screening period divided by the total number of RP attacks will be used as baseline for the analysis of all periods. The variable will be calculated similar to frequency data as before.
# [1] = Pooled Cilnidipine 20 mg and Cilnidipine 20 mg + Tadalafil 5 mg, n=4, Excluding Outliers, ITT Population - Part A
# [2] = Pooled Cilnidipine 20 mg and Cilnidipine 20 mg + Tadalafil 5 mg, n=4, ITT Population - Part A
# [3] = Pooled Cilnidipine 20 mg and Cilnidipine 20 mg + Tadalafil 5 mg, Excluding Outliers, ITT Population - Part A
# [4] = Pooled Cilnidipine 20 mg and Cilnidipine 20 mg + Tadalafil 5 mg, Excluding Outliers, by Baseline RCS, first subgroup, ITT Population - Part A
# [5] = Pooled Cilnidipine 20 mg and Cilnidipine 20 mg + Tadalafil 5 mg, Excluding Outliers, by Baseline RCS, second subgroup, ITT Population - Part A
# [6] = Pooled Cilnidipine 20 mg and Cilnidipine 20 mg + Tadalafil 5 mg, ITT Population - Part A
# [7] = Pooled Cilnidipine 20 mg and Cilnidipine 20 mg + Tadalafil 5 mg, first Baseline RCS subgroup block (not named), ITT Part A
# [8] = Pooled Cilnidipine 20 mg and Cilnidipine 20 mg + Tadalafil 5 mg, first Baseline RCS subgroup block (not named), ITT Part A, score 0-10
# [9] = Pooled Cilnidipine 20 mg and Cilnidipine 20 mg + Tadalafil 5 mg, second Baseline RCS subgroup block (not named), ITT Part A
# [10] = Pooled Cilnidipine 20 mg and Cilnidipine 20 mg + Tadalafil 5 mg, second Baseline RCS subgroup block (not named), ITT Part A, score 0-10
# [11] = Pooled Cilnidipine, n=3, Excluding Outliers, ITT Population - Part A
# [12] = Pooled Cilnidipine, n=3, ITT Population - Part A
# [13] = Pooled Cilnidipine, n=3, by Baseline RCS, first subgroup, ITT Population - Part A
# [14] = Pooled Cilnidipine, first Baseline RCS subgroup block (not named), ITT Part A
# [15] = Pooled Cilnidipine, first Baseline RCS subgroup block (not named), ITT Part A, score 0-10
compound,measurement,setting,value
"COCCOC(=O)C1=C(C)NC(C)=C(C(=O)OC/C=C/c2ccccc2)C1c1cccc([N+](=O)[O-])c1 (stereo not shown) [Cilnidipine, cilnidipine]","Average Severity (0-10) of Weekly Symptomatic RP Attacks, Mean",[1],3.40
same,"Average Severity (0-10) of Weekly Symptomatic RP Attacks, Median",[1],3.18
same,"Average Severity of Weekly Symptomatic RP Attacks, Change from Baseline, Mean",[1],−1.24
same,"Average Severity of Weekly Symptomatic RP Attacks, Change from Baseline, Median",[1],−1.06
same,"Average Severity of Weekly Symptomatic RP Attacks, Percent Change from Baseline, Mean",[1],−24.75%
same,"Average Severity of Weekly Symptomatic RP Attacks, Percent Change from Baseline, Median",[1],−19.08%
same,"Average Severity (0-10) of Weekly Symptomatic RP Attacks, Mean",[2],3.40
same,"Average Severity (0-10) of Weekly Symptomatic RP Attacks, Median",[2],3.18
same,"Average Severity of Weekly Symptomatic RP Attacks, Change from Baseline, Mean",[2],−1.24
same,"Average Severity of Weekly Symptomatic RP Attacks, Change from Baseline, Median",[2],−1.06
same,"Average Severity of Weekly Symptomatic RP Attacks, Percent Change from Baseline, Mean",[2],−24.75%
same,"Average Severity of Weekly Symptomatic RP Attacks, Percent Change from Baseline, Median",[2],−19.08%
same,"Average Severity of Weekly RP Attacks (All Attacks), Change from Baseline, Mean",[3],−1.02
same,"Average Severity of Weekly RP Attacks (All Attacks), Change from Baseline, Median",[3],−0.96
same,"Average Severity of Weekly RP Attacks (All Attacks), Mean",[3],3.35
same,"Average Severity of Weekly RP Attacks (All Attacks), Median",[3],3.06
same,"Average Severity of Weekly RP Attacks (All Attacks), Percent Change from Baseline, Mean",[3],−21.83%
same,"Average Severity of Weekly RP Attacks (All Attacks), Percent Change from Baseline, Median",[3],−16.40%
same,Average Severity of Weekly Symptomatic RP Attacks (Mean),[4],2.85
same,Average Severity of Weekly Symptomatic RP Attacks (Median),[4],2.40
same,"Average Severity of Weekly Symptomatic RP Attacks, Change from Baseline, Mean",[4],−1.06
same,"Average Severity of Weekly Symptomatic RP Attacks, Change from Baseline, Median",[4],−0.33
same,"Average Severity of Weekly Symptomatic RP Attacks, Percent Change from Baseline, Mean",[4],−24.28%
same,"Average Severity of Weekly Symptomatic RP Attacks, Percent Change from Baseline, Median",[4],−12.02%
same,Average Severity of Weekly Symptomatic RP Attacks (Mean),[5],5.06
same,Average Severity of Weekly Symptomatic RP Attacks (Median),[5],5.06
same,"Average Severity of Weekly Symptomatic RP Attacks, Change from Baseline, Mean",[5],−1.79
same,"Average Severity of Weekly Symptomatic RP Attacks, Change from Baseline, Median",[5],−1.79
same,"Average Severity of Weekly Symptomatic RP Attacks, Percent Change from Baseline, Mean",[5],−26.14%
same,"Average Severity of Weekly Symptomatic RP Attacks, Percent Change from Baseline, Median",[5],−26.14%
same,"Average Severity of Weekly RP Attacks (All Attacks), Change from Baseline, Mean",[6],−1.02
same,"Average Severity of Weekly RP Attacks (All Attacks), Change from Baseline, Median",[6],−0.96
same,"Average Severity of Weekly RP Attacks (All Attacks), Mean",[6],3.35
same,"Average Severity of Weekly RP Attacks (All Attacks), Median",[6],3.06
same,"Average Severity of Weekly RP Attacks (All Attacks), Percent Change from Baseline, Mean",[6],−21.83%
same,"Average Severity of Weekly RP Attacks (All Attacks), Percent Change from Baseline, Median",[6],−16.40%
same,"Average Severity of Weekly RP Attacks (All Attacks), Percent Change from Baseline, Mean",[7],−21.36%
same,"Average Severity of Weekly RP Attacks (All Attacks), Percent Change from Baseline, Median",[7],−9.57%
same,"Average Severity of Weekly RP Attacks (All Attacks), Change from Baseline, Mean",[8],−0.84
same,"Average Severity of Weekly RP Attacks (All Attacks), Change from Baseline, Median",[8],−0.39
same,"Average Severity of Weekly RP Attacks (All Attacks), Mean",[8],2.78
same,"Average Severity of Weekly RP Attacks (All Attacks), Median",[8],2.40
same,"Average Severity of Weekly RP Attacks (All Attacks), Percent Change from Baseline, Mean",[9],−23.23%
same,"Average Severity of Weekly RP Attacks (All Attacks), Percent Change from Baseline, Median",[9],−23.23%
same,"Average Severity of Weekly RP Attacks (All Attacks), Change from Baseline, Mean",[10],−1.53
same,"Average Severity of Weekly RP Attacks (All Attacks), Change from Baseline, Median",[10],−1.53
same,"Average Severity of Weekly RP Attacks (All Attacks), Mean",[10],5.06
same,"Average Severity of Weekly RP Attacks (All Attacks), Median",[10],5.06
same,Severity,Pooled Cilnidipine (n = 7),−16%
same,"Average Severity (0-10) of Weekly Symptomatic RP Attacks, Mean",[11],2.79
same,"Average Severity (0-10) of Weekly Symptomatic RP Attacks, Median",[11],2.40
same,"Average Severity of Weekly Symptomatic RP Attacks, Change from Baseline, Mean",[11],−0.87
same,"Average Severity of Weekly Symptomatic RP Attacks, Change from Baseline, Median",[11],−0.33
same,"Average Severity of Weekly Symptomatic RP Attacks, Percent Change from Baseline, Mean",[11],−19.22%
same,"Average Severity of Weekly Symptomatic RP Attacks, Percent Change from Baseline, Median",[11],−12.02%
same,"Average Severity (0-10) of Weekly Symptomatic RP Attacks, Mean",[12],2.79
same,"Average Severity (0-10) of Weekly Symptomatic RP Attacks, Median",[12],2.40
same,"Average Severity of Weekly Symptomatic RP Attacks, Change from Baseline, Mean",[12],−0.87
same,"Average Severity of Weekly Symptomatic RP Attacks, Change from Baseline, Median",[12],−0.33
same,"Average Severity of Weekly Symptomatic RP Attacks, Percent Change from Baseline, Mean",[12],−19.22%
same,"Average Severity of Weekly Symptomatic RP Attacks, Percent Change from Baseline, Median",[12],−12.02%
same,"Average Severity (0-10) of Weekly Symptomatic RP Attacks, Mean",[13],2.79
same,"Average Severity (0-10) of Weekly Symptomatic RP Attacks, Median",[13],2.40
same,"Average Severity of Weekly Symptomatic RP Attacks, Change from Baseline, Mean",[13],−0.87
same,"Average Severity of Weekly Symptomatic RP Attacks, Change from Baseline, Median",[13],−0.33
same,"Average Severity of Weekly Symptomatic RP Attacks, Percent Change from Baseline, Mean",[13],−19.22%
same,"Average Severity of Weekly Symptomatic RP Attacks, Percent Change from Baseline, Median",[13],−12.02%
same,"Average Severity of Weekly RP Attacks (All Attacks), Percent Change from Baseline, Mean",[14],−17.99%
same,"Average Severity of Weekly RP Attacks (All Attacks), Percent Change from Baseline, Median",[14],−7.69%
same,"Average Severity of Weekly RP Attacks (All Attacks), Change from Baseline, Mean",[15],−0.71
same,"Average Severity of Weekly RP Attacks (All Attacks), Change from Baseline, Median",[15],−0.20
same,"Average Severity of Weekly RP Attacks (All Attacks), Mean",[15],2.55
same,"Average Severity of Weekly RP Attacks (All Attacks), Median",[15],2.40
